Measurements as given in US9695155B2, “Herbicidal substituted pyrimidinyloxy benzene compounds” (E. I. DU PONT DE NEMOURS AND COMPANY, priority 2013, dated 2017).

What was measured:
velvetleaf [1] = assay: Test A preemergence; format: in vivo, Abutilon theophrasti; details: for Velvetleaf plant response rating (0 to 100 scale): 125 g ai/ha; for Velvetleaf plant response rating: 500 g ai/ha, 0 to 100 scale where 0 is no effect and 100 is complete control
Procedure, shortened: (§1)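 Scoring: eye-based comparison with untreated controls, 0 for no effect through 100 for complete control, at about day 10. Treatments: directed soil spray preemergence; foliar spray postemergence on 2–10 cm plants at the one- to two-leaf stage. Medium: loam soil with sand.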

wheat = assay: Test A postemergence; format: in vivo, Triticum aestivum; details: 0 to 100 scale where 0 is no effect and 100 is complete control; for Wheat plant response rating: 125 g ai/ha; for Plant response rating, Wheat: 500 g ai/ha
Procedure, shortened: as §1

velvetleaf [2] = assay: Test C postemergence; format: in vivo, Abutilon theophrasti; details: for Plant response rating (0 to 100), Velvetleaf: 0 is no effect, 100 is complete control; for Velvetleaf plant response rating: 31 g ai/ha, 13 to 15 days; for Velvetleaf plant response rating / Plant response rating, Velvetleaf: scale 0 to 100 (0 no effect, 100 complete control)
Procedure, shortened: (§2)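 Rated visually on 0–100 (100 = complete control) after 13–15 days under glass. Treatments went onto freshly seeded loam/sand soil or onto emerged plants at the 1- to 4-leaf stage, using a surfactant-containing solvent formulation.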

morningglory [3] = assay: Test A preemergence; format: in vivo, Ipomoea spp.; details: for Morningglory plant response rating (0 to 100 scale): 125 g ai/ha; for Morningglory plant response rating: 500 g ai/ha, 0 to 100 scale where 0 is no effect and 100 is complete control
Procedure, shortened: as §1

pigweed [4] = assay: Test C postemergence; format: in vivo, Amaranthus retroflexus; details: for Plant response rating (0 to 100), Pigweed: 0 is no effect, 100 is complete control; for Pigweed plant response rating: 31 g ai/ha, 13 to 15 days; for Pigweed plant response rating / Plant response rating, Pigweed: scale 0 to 100 (0 no effect, 100 complete control)
Procedure, shortened: as §2

ragweed = assay: Test C postemergence; format: in vivo, Ambrosia elatior; details: for Plant response rating (0 to 100), Ragweed: 0 is no effect, 100 is complete control; for Ragweed plant response rating: 31 g ai/ha, 13 to 15 days; for Ragweed plant response rating / Plant response rating, Ragweed: scale 0 to 100 (0 no effect, 100 complete control)
Procedure, shortened: as §2

wild oat = assay: Test C postemergence; format: in vivo, Avena fatua; details: for Plant response rating (0 to 100), Oat, Wild: 0 is no effect, 100 is complete control; for Oat, Wild plant response rating: 31 g ai/ha, 13 to 15 days; for Oat, Wild plant response rating / Plant response rating, Oat, Wild: scale 0 to 100 (0 no effect, 100 complete control)
Procedure, shortened: as §2

morningglory [5] = assay: Test A postemergence; format: in vivo, Ipomoea spp.; details: 0 to 100 scale where 0 is no effect and 100 is complete control; for Morningglory plant response rating: 125 g ai/ha; for Plant response rating, Morningglory: 500 g ai/ha
Procedure, shortened: as §1

blackgrass = assay: Test C postemergence; format: in vivo, Alopecurus myosuroides; details: for Plant response rating (0 to 100), Blackgrass: 0 is no effect, 100 is complete control; for Blackgrass plant response rating: 31 g ai/ha, 13 to 15 days; for Blackgrass plant response rating / Plant response rating, Blackgrass: scale 0 to 100 (0 no effect, 100 complete control)
Procedure, shortened: as §2

kochia = assay: Test C postemergence; format: in vivo, Kochia scoparia; details: for Plant response rating (0 to 100), Kochia: 0 is no effect, 100 is complete control; for Kochia plant response rating: 31 g ai/ha, 13 to 15 days; for Kochia plant response rating / Plant response rating, Kochia: scale 0 to 100 (0 no effect, 100 complete control)
Procedure, shortened: as §2

barnyardgrass [6] = assay: Test C postemergence; format: in vivo, Echinochloa crus-galli; details: for Plant response rating (0 to 100), Barnyardgrass: 0 is no effect, 100 is complete control; for Barnyardgrass plant response rating: 31 g ai/ha, 13 to 15 days; for Barnyardgrass plant response rating / Plant response rating, Barnyardgrass: scale 0 to 100 (0 no effect, 100 complete control)
Procedure, shortened: as §2

Heteranthera limosa = assay: Test B flooded paddy test; format: in vivo; details: Flood, 250 g ai/ha; 0 to 100 scale where 0 is no effect and 100 is complete control
Procedure, shortened: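 Post-emergence paddy-water application at the 2-leaf stage, with 3 cm flood kept for the whole test. Response was judged visually relative to controls after 13 to 15 greenhouse days, 0 indicating no effect and 100 complete control.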

barnyardgrass [7] = assay: Test A preemergence; format: in vivo, Echinochloa crus-galli; details: 0 to 100 scale where 0 is no effect and 100 is complete control; for Plant response rating, Barnyardgrass: 125 g ai/ha; for Barnyardgrass plant response rating: 500 g ai/ha
Procedure, shortened: as §1

pigweed [8] = assay: Test A preemergence; format: in vivo, Amaranthus retroflexus; details: for Pigweed plant response rating (0 to 100 scale): 125 g ai/ha; for Pigweed plant response rating: 500 g ai/ha, 0 to 100 scale where 0 is no effect and 100 is complete control
Procedure, shortened: as §1

morningglory [9] = assay: Test C postemergence; format: in vivo, Ipomoea coccinea; details: for Plant response rating (0 to 100), Morningglory: 0 is no effect, 100 is complete control; for Morningglory plant response rating: 31 g ai/ha, 13 to 15 days; for Morningglory plant response rating / Plant response rating, Morningglory: scale 0 to 100 (0 no effect, 100 complete control)
Procedure, shortened: as §2

[10] = 125 g ai/ha, postemergence, visual rating

O=Cc1cccc(Oc2ncc(I)cn2)c1-n1cc(Br)cn1 [Compound 172]
80: Morningglory plant response rating (morningglory [5])
20: Blackgrass plant response rating (blackgrass; postemergence, visual rating) | Morningglory plant response rating (morningglory [9]; postemergence, visual rating)
5: Plant response rating (0 to 100), Velvetleaf (velvetleaf [2]; 8 g ai/ha, postemergence) | Plant response rating (0 to 100), Velvetleaf (velvetleaf [2]; 16 g ai/ha, postemergence) | Plant response rating (0 to 100), Pigweed (pigweed [4]; 8 g ai/ha, postemergence) | Plant response rating, Pigweed (pigweed [4]; Postemergence, 62 g ai/ha) | Plant response rating (0 to 100), Barnyardgrass (barnyardgrass [6]; 16 g ai/ha, postemergence) | Barnyardgrass plant response rating (barnyardgrass [6]; postemergence, visual rating) | Plant response rating, Barnyardgrass (barnyardgrass [6]; Postemergence, 62 g ai/ha)
90: Plant response rating, Morningglory (morningglory [5])
50: Pigweed plant response rating (pigweed [8])
30: Plant response rating, Kochia (kochia; Postemergence, 62 g ai/ha)
10: Velvetleaf plant response rating (velvetleaf [2]; postemergence, visual rating) | Plant response rating, Velvetleaf (velvetleaf [2]; Postemergence, 62 g ai/ha) | Plant response rating (0 to 100), Pigweed (pigweed [4]; 16 g ai/ha, postemergence) | Pigweed plant response rating (pigweed [4]; postemergence, visual rating) | Plant response rating, Morningglory (morningglory [9]; Postemergence, 62 g ai/ha)
0: Velvetleaf plant response rating (0 to 100 scale) (velvetleaf [1]) | Velvetleaf plant response rating (velvetleaf [1]) | Wheat plant response rating (wheat) | Plant response rating, Wheat (wheat) | Morningglory plant response rating (0 to 100 scale) (morningglory [3]) | Morningglory plant response rating (morningglory [3]) | Plant response rating (0 to 100), Ragweed (ragweed; 8 g ai/ha, postemergence) | Plant response rating (0 to 100), Ragweed (ragweed; 16 g ai/ha, postemergence) | Ragweed plant response rating (ragweed; postemergence, visual rating) | Plant response rating, Ragweed (ragweed; Postemergence, 62 g ai/ha) | Plant response rating (0 to 100), Oat, Wild (wild oat; 8 g ai/ha, postemergence) | Plant response rating (0 to 100), Oat, Wild (wild oat; 16 g ai/ha, postemergence) | Oat, Wild plant response rating (wild oat; postemergence, visual rating) | Plant response rating, Oat, Wild (wild oat; Postemergence, 62 g ai/ha) | Plant response rating (0 to 100), Blackgrass (blackgrass; 8 g ai/ha, postemergence) | Plant response rating (0 to 100), Blackgrass (blackgrass; 16 g ai/ha, postemergence) | Plant response rating, Blackgrass (blackgrass; Postemergence, 62 g ai/ha) | Plant response rating (0 to 100), Kochia (kochia; 8 g ai/ha, postemergence) | Plant response rating (0 to 100), Kochia (kochia; 16 g ai/ha, postemergence) | Kochia plant response rating (kochia; postemergence, visual rating) | Plant response rating (0 to 100), Barnyardgrass (barnyardgrass [6]; 8 g ai/ha, postemergence) | Plant response rating, Ducksalad (Heteranthera limosa) | Plant response rating, Barnyardgrass (barnyardgrass [7]) | Barnyardgrass plant response rating (barnyardgrass [7]) | Pigweed plant response rating (0 to 100 scale) (pigweed [8]) | Plant response rating (0 to 100), Morningglory (morningglory [9]; 8 g ai/ha, postemergence) | Plant response rating (0 to 100), Morningglory (morningglory [9]; 16 g ai/ha, postemergence)

Fc1cccc(Oc2ncc(Cl)cn2)c1-n1cc(Cl)cn1 [Compound 177]
100: Velvetleaf plant response rating (velvetleaf [1]) | Plant response rating, Morningglory (morningglory [5]) | Barnyardgrass plant response rating (barnyardgrass [7]) | Pigweed plant response rating (0 to 100 scale) (pigweed [8]) | Pigweed plant response rating (pigweed [8])
5: Plant response rating (0 to 100), Oat, Wild (wild oat; 16 g ai/ha, postemergence) | Blackgrass plant response rating (blackgrass; postemergence, visual rating) | Plant response rating, Blackgrass (blackgrass; Postemergence, 62 g ai/ha) | Plant response rating (0 to 100), Barnyardgrass (barnyardgrass [6]; 16 g ai/ha, postemergence) | Barnyardgrass plant response rating (barnyardgrass [6]; postemergence, visual rating)
55: Plant response rating, Ragweed (ragweed; Postemergence, 62 g ai/ha)
20: Wheat plant response rating (wheat) | Morningglory plant response rating (0 to 100 scale) (morningglory [3]) | Plant response rating (0 to 100), Morningglory (morningglory [9]; 16 g ai/ha, postemergence)
60: Plant response rating, Ragweed (ragweed; [10])
70: Velvetleaf plant response rating (velvetleaf [2]; postemergence, visual rating) | Plant response rating, Velvetleaf (velvetleaf [2]; Postemergence, 62 g ai/ha) | Plant response rating (0 to 100), Kochia (kochia; 16 g ai/ha, postemergence) | Kochia plant response rating (kochia; postemergence, visual rating) | Plant response rating, Barnyardgrass (barnyardgrass [7])
80: Velvetleaf plant response rating (0 to 100 scale) (velvetleaf [1]) | Plant response rating, Velvetleaf (velvetleaf [2]; [10]) | Morningglory plant response rating (morningglory [3]) | Pigweed plant response rating (pigweed [4]; postemergence, visual rating) | Plant response rating, Morningglory (morningglory [9]; Postemergence, 62 g ai/ha)
50: Plant response rating (0 to 100), Velvetleaf (velvetleaf [2]; 16 g ai/ha, postemergence)
15: Ragweed plant response rating (ragweed; postemergence, visual rating)
95: Plant response rating, Pigweed (pigweed [4]; [10]) | Plant response rating, Kochia (kochia; [10])
90: Plant response rating, Wheat (wheat) | Morningglory plant response rating (morningglory [5]) | Plant response rating, Kochia (kochia; Postemergence, 62 g ai/ha) | Plant response rating, Ducksalad (Heteranthera limosa)
75: Plant response rating (0 to 100), Pigweed (pigweed [4]; 16 g ai/ha, postemergence)
85: Plant response rating, Pigweed (pigweed [4]; Postemergence, 62 g ai/ha) | Plant response rating, Morningglory (morningglory [9]; [10])
0: Oat, Wild plant response rating (wild oat; postemergence, visual rating) | Plant response rating (0 to 100), Blackgrass (blackgrass; 16 g ai/ha, postemergence)
35: Plant response rating, Blackgrass (blackgrass; [10])
30: Plant response rating, Oat, Wild (wild oat; [10])
10: Plant response rating (0 to 100), Ragweed (ragweed; 16 g ai/ha, postemergence) | Plant response rating, Oat, Wild (wild oat; Postemergence, 62 g ai/ha) | Plant response rating, Barnyardgrass (barnyardgrass [6]; [10]) | Plant response rating, Barnyardgrass (barnyardgrass [6]; Postemergence, 62 g ai/ha) | Morningglory plant response rating (morningglory [9]; postemergence, visual rating)
